Assay type in all cases: physicochemical
The nature of data set [1]: ROBOT oxidation stability test. The following applies: 35 g of lubricant; 6.25 bar of oxygen; T = 120° C., without catalyst.
Another data set in a line: Viscosity index (VI). The source says: (§1) Example 27 illustrates the properties of the methyl formyloxystearate and methyl [2,2-dimethylpropionyloxy]-stearate esters prepared according to examples 1 and 4 compared to pure methyl oleate (base raw material).
Data set [2] in a line: Kinematic viscosity (KV) of the esters compared to methyl oleate.
Description: as §1

The next data set can be described thus: Pour point.
Description: as §1

The nature of the next data set: Density.
Description: as §1

On to `CCCCCCCC/C=C\CCCCCCCC(=O)OC` [Methyl oleate, methyl oleate, reference compound], for which the ROBOT in data set [1] was determined as 10 min. For the same compound, the VI in “Viscosity index (VI)” was 178. Also, in data set [2], the “KV (40° C.)” value is reported as 4.5 mm^2/s and the “KV (100° C.)” value is on record as 1.7 mm^2/s. The compound also registered a Pour point in the data set “Pour point” of −18 °C.
On to `CCCCCCCCCC(CCCCCCCC(=O)OC)OC(=O)C(C)(C)C` (centres unmarked) [methyl 9-(10)-[2,2′-dimethylpropionyloxy]stearate], for which the “Density (15° C.)” value in the data set “Density” worked out at 902.73 kg/m^3. The compound also registered an ROBOT in data set [1] of 27 min. The VI in the data set “Viscosity index (VI)” is 139. Further, in data set [2], the “KV (40° C.)” value was found to be 13.1 mm^2/s and the “KV (100° C.)” value worked out at 3.4 mm^2/s. This compound also registered a Pour point in the data set “Pour point” of −9 °C.
Consider “methyl 9(10)-formyloxystearate [Methyl formyloxystearate]”, for which, in the data set “Density”, the “Density (15° C.)” value is 933.65 kg/m^3. Further, in data set [1], the ROBOT is reported as 165 min. The VI in the data set “Viscosity index (VI)” was found to be 120. In data set [2], the “KV (40° C.)” value is 12.0 mm^2/s and the “KV (100° C.)” value came to 3.1 mm^2/s. For the same compound, in “Pour point”, the Pour point is −18 °C.

(Values after patent US7101831B2, “Compositions of material, especially lubricants and pressure transmitting means, the production and use thereof” (Fuchs Petrolub AG, priority 2000, dated 2006).)
